From the NIST ThermoML archive (doi:10.1016/j.fluid.2016.10.026)

Settings: for mass density / kinematic viscosity / speed of sound: Liquid; for mass density: Vibrating tube method; for surface tension liquid-gas: Drop volume; for kinematic viscosity: Capillary tube (Ostwald / Ubbelohde) method; for speed of sound: Frequency=3 MHz, Sing-around technique in a fixed-path interferometer

CC(=O)c1cccs1 [2-acetylthiophene]
Settings | kinematic viscosity [m2/s] | mass density [kg/m3] | speed of sound [m/s]
298.15 K, 2000 kPa | – | 1167.52 | –
298.15 K, 5000 kPa | – | 1169.28 | –
298.15 K, 7000 kPa | – | 1170.46 | –
298.15 K, 10000 kPa | – | 1172.2 | –
298.15 K, 15000 kPa | – | 1175.02 | –
298.15 K, 20000 kPa | – | 1177.77 | –
298.15 K, 25000 kPa | – | 1180.44 | –
298.15 K, 30000 kPa | – | 1183.06 | –
298.15 K, 35000 kPa | – | 1185.59 | –
298.15 K, 40000 kPa | – | 1188.08 | –
298.15 K, 45000 kPa | – | 1190.5 | –
298.15 K, 50000 kPa | – | 1192.87 | –
298.15 K, 55000 kPa | – | 1195.17 | –
298.15 K, 60000 kPa | – | 1197.42 | –
298.15 K, 65000 kPa | – | 1199.61 | –
300.65 K, 101 kPa | 2.1e-06 | 1163.91 | 1460.5
303.15 K, 100 kPa | – | 1161.59 | –
303.15 K, 101 kPa | 1.99e-06 | 1161.52 | 1451.8
303.15 K, 2000 kPa | – | 1162.77 | –
303.15 K, 5000 kPa | – | 1164.6 | –
303.15 K, 7000 kPa | – | 1165.79 | –
303.15 K, 10000 kPa | – | 1167.56 | –
303.15 K, 15000 kPa | – | 1170.45 | –
303.15 K, 20000 kPa | – | 1173.26 | –
303.15 K, 25000 kPa | – | 1175.98 | –
303.15 K, 30000 kPa | – | 1178.65 | –
303.15 K, 35000 kPa | – | 1181.25 | –
303.15 K, 40000 kPa | – | 1183.77 | –
303.15 K, 45000 kPa | – | 1186.24 | –
303.15 K, 50000 kPa | – | 1188.64 | –
303.15 K, 55000 kPa | – | 1190.99 | –
303.15 K, 60000 kPa | – | 1193.27 | –
303.15 K, 65000 kPa | – | 1195.5 | –
305.65 K, 101 kPa | 1.9e-06 | 1159.13 | 1443.2
308.15 K, 100 kPa | – | 1156.84 | –
308.15 K, 101 kPa | 1.81e-06 | 1156.74 | 1434.8
308.15 K, 2000 kPa | – | 1158.03 | –
308.15 K, 5000 kPa | – | 1159.89 | –
308.15 K, 7000 kPa | – | 1161.11 | –
308.15 K, 10000 kPa | – | 1162.92 | –
308.15 K, 15000 kPa | – | 1165.87 | –
308.15 K, 20000 kPa | – | 1168.75 | –
308.15 K, 25000 kPa | – | 1171.53 | –
308.15 K, 30000 kPa | – | 1174.24 | –
308.15 K, 35000 kPa | – | 1176.89 | –
308.15 K, 40000 kPa | – | 1179.46 | –
308.15 K, 45000 kPa | – | 1181.98 | –
308.15 K, 50000 kPa | – | 1184.43 | –
308.15 K, 55000 kPa | – | 1186.82 | –
308.15 K, 60000 kPa | – | 1189.15 | –
308.15 K, 65000 kPa | – | 1191.41 | –
310.65 K, 101 kPa | 1.72e-06 | 1154.35 | 1426.1
313.15 K, 100 kPa | – | 1152.05 | –
313.15 K, 101 kPa | 1.65e-06 | 1151.96 | 1417.5
313.15 K, 2000 kPa | – | 1153.3 | –
313.15 K, 5000 kPa | – | 1155.19 | –
313.15 K, 7000 kPa | – | 1156.45 | –
313.15 K, 10000 kPa | – | 1158.29 | –
313.15 K, 15000 kPa | – | 1161.33 | –
313.15 K, 20000 kPa | – | 1164.23 | –

Settings | surface tension liquid-gas [mN/m]
300.65 K | 42.86
303.15 K | 42.59
305.65 K | 42.31
308.15 K | 42.03
310.65 K | 41.72
313.15 K | 41.43
